Series [1] is described as follows: in vivo. Particulars: Sprague-Dawley, rat, brain/plasma, po, 10 mg/kg.
The nature of series [2]: in vivo. The note with it: Sprague-Dawley, rat, po, 10 mg/kg.
The nature of series [3]: in vivo. The note with it: Sprague-Dawley, rat, po, 10 mg/kg. This is another data set of the same source.

With `CCc1cccc2c1C[C@@H]1CNCCN1C2=O`, the concentration ratio (Kp) in the series “in vivo [1]” came out at 3.9. The compound also yielded an AUC(0-t) at 4 h in “in vivo [2]” of 9.64 µM·h. Besides, the highest concentration (Cmax) in “in vivo [3]” turned out to be 3.62 µM.

(Values after ChEMBL document CHEMBL2396562, “Synthesis and SAR of potent and selective tetrahydropyrazinoisoquinolinone 5-HT(2C) receptor agonists” (Bioorg Med Chem Lett, 2013).)
